From US20080182895A1 (priority 2006, published 2008)
Where two headings read alike, the source gives them in different places.

How the values were obtained:
Assay type in all cases: cell-based, Hepatitis C virus
1b, BB7 replicon (WT) = assay: Replicon 3-day assay, wild type; conditions: read-out: EC50 (μM or pg/ml) ± SD
Procedure: (§1) pBB7-replicon variant DNAs were linearized with Sca I, and in vitro transcription was performed using Ambion's […]® T7 High Yield Transcription kit (Austin, Tex.). Purified RNA transcripts were electroporated into Huh-7 cells in quadruplicates using a Biorad GENE PULSER® Electroporation System (Setting: 270V, 950 μF) (Hercules, Calif.). Stably transfected replicon variant cell lines were initially selected with 0.25 mg/ml G418 and stepped up to 1 mg/ml before further testing. One cell plate was stained with Crystal Violet to visualize the number of colonies and determine the colony formation efficiency. Individual cell clones from each plate were pooled and expanded for drug susceptibility testing.
(§2) The contribution of individual amino acid changes on drug resistance was assessed in replicon variants containing single amino acid mutations in NS5B in the background of the genotype 1b, BB7 adaptive replicon (Blight et al. (2000) Science 290:1972-74).
(§3) Drug susceptibility of the replicon-containing cells to various compounds was evaluated as described previously (Howe et al. (2004) Antimicrobial Agents Chem. 48:4813-21). Briefly, cells were treated with increasing concentrations of compounds in medium containing 2% FCS and no G418 for three days at 37° C. and 5% CO2. After incubation, total RNA from the replicon-containing cells was isolated. The levels of HCV, glyceraldehyde 3-phosphate dehydrogenase (GAPDH) and ribosomal (rRNA) RNAs were quantified using TAQMAN® (PE Applied Biosystems, Foster City, Calif.) reverse transcriptase PCR reactions. The amounts of HCV, 18S ribosomal, and GAPDH RNAs in each sample were estimated by comparing the number of cycles during the exponential phase of the PCR amplification with those in the corresponding standard curves. HCV RNA standards used for the construction of the standard curve were prepared by extracting the total RNA from the Clone A cells. The RNA sample was sent to National Genetics Institute to quantify HCV RNA. Total RNA extracted from Clone A cells was quantified by O.D.260 measurement and used for construction of the standard curves of rRNA and GAPDH. The concentrations of the compounds that inhibit 50% of the HCV RNA level (EC50) were determined using the MDL® LIFE SCIENCE WORKBENCH® (LSW) Data Analysis software (MDL Information Systems, San Leandro, Calif.) in Microsoft EXCEL®. The amounts of HCV or GAPDH RNAs in the samples were expressed as HCV RNA (copies) or GAPDH (ng), respectively, per μg of total RNA using rRNA as a marker for total RNA measurement.

1b, BB7-C316Y replicon = assay: Replicon variant 3-day assay; conditions: for Fold Resistance: C316Y replicon vs 1b, BB7 (WT); for EC50: read-out: EC50 (μM or pg/ml) ± SD
Procedure: as §1, §2, §3

[1] = tested on: 1b, BB7 replicon variants with single NS5B mutations; assay: Replicon variant assay, several variants taken together; conditions: replicon variants with HCV-796-associated mutations
Procedure: as §1, §2, §3

Compound | EC50 (1b, BB7 replicon (WT); Hepatitis C virus) [µM] | inhibition of the C316Y replicon compared with wild type (in words) (1b, BB7-C316Y replicon; C316Y replicon variant vs wild type replicon) | Fold Resistance (1b, BB7-C316Y replicon) [fold] | EC50 (1b, BB7-C316Y replicon; Hepatitis C virus) [µM] | susceptibility of HCV-796-resistant replicon variants to other antiviral agents (in words) ([1]; listed as Ribavirin) | susceptibility of HCV-796-resistant replicon variants to other antiviral agents (in words) ([1]; listed as ribavirin) | EC50 (1b, BB7 replicon (WT); 1b, BB7 (WT) replicon) [µM] | EC50 (1b, BB7-C316Y replicon; C316Y replicon) [µM]
NC(=O)c1ncn([C@@H]2O[C@H](CO)[C@@H](O)[C@H]2O)n1 [RBV, 1-β-D-ribofuranosyl-1H-1,2,4-triazole-3-carboxamide, reference compound] | 133 ± 40.5 | as efficiently as in the wild type replicon | 1.8 | 201 ± 36.7 | inhibits | remained susceptible |  | 
CCC[C@]1(CC(=O)O)OCCc2c1[nH]c1c(C)ccc(C#N)c21 [HCV-371, [(1R)-5-cyano-8-methyl-1-propyl-1,3,4,9-tetrahydropyano[3,4-b]indol-1-yl]acetic acid] |  |  | 0.9 |  |  |  | 12.2 ± 1.8 | 10.8 ± 0.8
